# Measurements as given in patent US6448263B1, “Treatment of insulin resistance with growth hormone secretagogues” (Pfizer Inc., priority 1997, dated 2002).
# Where a name gives a salt, the structure may show the parent alone.
# Test system: female Sprague-Dawley rats (Sham and Ovx)
# Test: Female Rat Study: chronic oral treatment with a GHRP mimetic, non-fasting plasma insulin and metabolite levels
# Format: in vivo
# Settings: non-fasting blood at sacrifice
# Procedure: This study evaluates the effect of chronic treatment with a GHRP mimetic on weight, body composition and non-fasting plasma concentrations of glucose, insulin, lactate and lipids in estrogen-deficient and estrogenreplete female rats. Acute responsiveness of serum GH levels to i.v. administration of the GH releasing agent was assessed on the last day of dosing. Body weight was monitored weekly throughout the treatment period; additionally, body composition and plasma levels of glucose, insulin, lactate, cholesterol and triglycerides were assessed at the end of treatment.
# Virgin female Sprague-Dawley rats were obtained from Charles River Laboratories (Wilmington, Mass.) and underwent bilateral ovariectomy (Ovx) or sham-surgery (Sham) at approximately 12 weeks of age. For sham surgeries, ovaries were exteriorized and replaced into the abdominal cavity. Following surgery the rats were housed individually in 20 cm×32 cm×20 cm cages under standard vivarium conditions (about 24° C. with about 12 hours light/12 hours dark cycle). All rats were allowed free access to water and a pelleted commercial diet (Agway ProLab 3000, Agway Country Food, Inc., Syracuse, N.Y.). The experiment was conducted in accordance with NIH Guidelines for the Care and Use of Laboratory Animals.
# Approximately seven months post-surgery, Sham and Ovx rats were weighed and randomly assigned to groups. Rats were dosed daily by oral gavage with 1 mL of either vehicle (1% ethanol in distilled-deionized water), 0.5 mg/kg or 5 mg/kg of a growth hormone releasing agent for 90 days. Rats were weighed at weekly intervals throughout the study. Twenty-four hours after the last oral dose, the acute response of serum growth hormone (GH) to test agent was assessed by the following procedure. Rats were anesthetized with sodium pentobarbital 50 mg/kg. Anesthetized rats were weighed and a baseline blood sample (˜100 μl) was collected from the tail vein. Test agent (growth hormone releasing agent or vehicle) was then administered intravenously via the tail vein in 1 mL. Approximately ten minutes after injection, a second 100 μl blood sample was collected from the tail. Blood was allowed to clot at about 4° C., then centrifuged at 2000×g for about 10 minutes. Serum was stored at about −70° C. Serum growth hormone concentrations were determined by radioimmunoassay as previously described. Following this procedure, each anesthetized rat underwent whole body scanning by dual-energy X-ray absorptiometry (DEXA, Hologic QDR 1000/W, Waltham Mass.). A final blood sample was collected by cardiac puncture into heparinized tubes. Plasma was separated by centrifugation and stored frozen as described above.
# Plasma insulin is determined by radioimmunoassay using a kit from Binax Corp. (Portland, Me.). The interassay coefficient of variation is ≦10%. Plasma triglycerides, total cholesterol, glucose and lactate levels are measured using Abbott VP™ and VP Super System® Autoanalyzer (Abbott Laboratories, Irving, Texas), using the A-Gent™ Triglycerides, Cholesterol and Glucose Test reagent systems, and a lactate kit from Sigma, respectively. The plasma insulin, triglycerides, total cholesterol and lactate lowering activity of a growth hormone releasing peptide (GHRP) or GHRP mimetic such as a compound of formula I, are determined by statistical analysis (unpaired t-test) with the vehicle-treated control group.
# [1] = Ovx rats, 0.5 mg/kg daily oral gavage for 90 days
# [2] = Ovx rats, 5.0 mg/kg daily oral gavage for 90 days
# [3] = Sham rats, 0.5 mg/kg daily oral gavage for 90 days
# [4] = Sham rats, 5.0 mg/kg daily oral gavage for 90 days
smiles,measurement,setting,value
"CN1N=C2CCN(C(=O)[C@@H](COCc3ccccc3)NC(=O)C(C)(C)N)C[C@@]2(Cc2ccccc2)C1=O [2-amino-N-[2-(3a-(R)-benzyl-2-methyl-3-oxo-2,3,3a,4,6,7-hexahydro-pyrazolo[4,3-c]pyridin-5-yl)-1-(R)-(benzyloxymethyl)-2-oxo-ethyl]-isobutyramide L-tartaric acid salt]",Cholesterol (mean plasma level),[1],92.5 mg/dL
same,Glucose (mean plasma level),[1],179.7 mg/dL
same,Insulin (mean plasma level),[1],*78.7 uU/mL
same,Lactate (mean plasma level),[1],3.6 mg/dL
same,Triglyceride (mean plasma level),[1],181.9 mg/dL
same,Cholesterol (mean plasma level),[2],102.2 mg/dL
same,Glucose (mean plasma level),[2],177.2 mg/dL
same,Insulin (mean plasma level),[2],*84.1 uU/mL
same,Lactate (mean plasma level),[2],3.1 mg/dL
same,Triglyceride (mean plasma level),[2],158.4 mg/dL
same,Cholesterol (mean plasma level),[3],95.4 mg/dL
same,Glucose (mean plasma level),[3],*142.7 mg/dl
same,Insulin (mean plasma level),[3],94.9 uU/mL
same,Lactate (mean plasma level),[3],3.7 mg/dL
same,Triglyceride (mean plasma level),[3],219.6 mg/dL
same,Cholesterol (mean plasma level),[4],*80.6 mg/dl
same,Glucose (mean plasma level),[4],*139.9 mg/dl
same,Insulin (mean plasma level),[4],95.7 uU/mL
same,Lactate (mean plasma level),[4],*3.2 mg/dl
same,Triglyceride (mean plasma level),[4],227.2 mg/dL
